# According to patent US20150258052A1, “METHODS OF USING FEXARAMINE AND AGENTS THAT INCREASE SYMPATHETIC NERVOUS SYSTEM ACTIVITY TO PROMOTE BROWNING OF WHITE ADIPOSE TISSUE” (Salk Institute for Biological Studies, priority 2014, published 2015):
# What was measured:
# [1] = system: white adipose tissue (WAT); test: Inflammation, lipolysis and browning of white adipose tissue in Fex-treated DIO mice; assay type: in vivo
# Procedure: Mice were fed on HFD for 14 weeks and subsequently subjected to daily PO injection of vehicle or fexaramine (100 mg/kg) for 5 weeks with HFD. In the bar graphs, open bars are vehicle, solid bars of fexaramine, and data represent the mean±STD. Statistical analysis was performed with the Student's t test (*p<0.05, **p<0.01).
# FIG. 12F is a bar chart showing serum glycerol levels in vehicle or fexaramine-treated mice. Isoproterenol (1 μg/kg) was injected at 0 minutes and free glycerol levels were measured at the indicated time points. Data represent the mean±STD. Statistical analysis was performed with the Student's t test (*p<0.05, **p<0.01).
# Mice fed a HFD for 14 weeks were maintained on a HFD and treated with vehicle or fexaramine (100 mg/kg/day os for 5 week). (I) Changes in genes associated with the browning of adipose tissue and (J) oxygen consumption rate of the stromal vascular fraction (SVF) from inguinal fat (iWAT). Data represent the mean±SD. Statistical analysis was performed with the Student's t test. *p<0.05, **p<0.01.
# FIG. 13 is a set of digital images of gel electrophoreses (Western blots) showing the level of expression of various proteins in gonadal white adipose tissue (gWAT). Mice fed a HFD for 14 weeks were maintained on a HFD and treated with vehicle or fexaramine (50 mg or 100 mg/kg/day os for 5 week).
# FIG. 14 is a bar chart showing that fexaramine reduces brown adipose tissue (BAT) inflammation. Mice fed a HFD for 14 weeks were maintained on a HFD and treated with vehicle or fexaramine (100 mg/kg/day os for 5 weeks). Expression of inflammatory cytokines in BAT. Data represent the mean±SD. Statistical analysis was performed with the Student's t test. *p<0.05, **p<0.01.
# During obesity, adipose tissue expands by hyperplastic and/or hypertrophic growth, is chronically inflamed, and produces inflammatory cytokines that ultimately contribute to systemic metabolic dysregulation. […] These noncanonical IκB kinases were recently shown to play crucial roles in energy expenditure as a consequence of adipose tissue inflammation upon diet-induced obesity (Reilly et al., Nat Med 19:313-321, 2013).
# Brown adipose-driven adaptive thermogenesis is fueled by mitochondrial oxidation of free fatty acids (FFAs) released from triglyceride stores into the circulation, predominantly by the action of hormone-sensitive lipase (HSL).
# human TGR5 = target: T1, human TGR5 (Homo sapiens, UniProt Q8TDU6); test: TGR5 cAMP-response element luciferase reporter in HEK293 cells; assay type: cell-based; settings: HEK293 cells transfected with human TGR5, treated 5 hours
# T1 construct: expressed in transfected cells; host or cells: HEK293
# T1 sequence (Q8TDU6 1-330): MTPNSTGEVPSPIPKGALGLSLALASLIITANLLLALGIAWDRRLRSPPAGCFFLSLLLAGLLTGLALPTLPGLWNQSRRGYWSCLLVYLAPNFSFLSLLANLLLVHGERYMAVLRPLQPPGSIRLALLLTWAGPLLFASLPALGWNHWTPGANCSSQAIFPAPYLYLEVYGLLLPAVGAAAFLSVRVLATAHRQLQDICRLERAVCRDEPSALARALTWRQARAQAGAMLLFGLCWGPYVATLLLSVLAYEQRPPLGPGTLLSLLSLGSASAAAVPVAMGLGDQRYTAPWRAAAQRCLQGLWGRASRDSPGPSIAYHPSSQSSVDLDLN
# Procedure: HEK293 cells were transfected with expression vectors for cAMP-response element luciferase, β-galactosidase and human TGR5. 24 hours after transfection, cells were treated with fexaramine or INT-777 (a TGR5 agonist)
# at the indicated concentrations for 5 hours, prior to measurement of luciferase activity. Data represent the mean±SD. Statistical analysis was performed with the Student's t test. *p<0.05, **p<0.01.
# [2] = system: FXR target gene expression; test: FXR target gene expression (qPCR) in intestine, liver and kidney after acute PO or IP fexaramine; assay type: in vivo, mice
# Procedure: FIGS. 1A-1C are a comparative expression chart and two bar charts, respectively, illustrating increased levels of FXR target gene expression in the intestine relative to expression in the liver and kidney. 8 week-old mice were treated with vehicle or fexaramine (100 mg/kg) via oral (PO) or intraperitoneal (IP) injection for three days (FIGS. 1A-1B) or five days (FIG. 1C).
# FXR target gene expression was analyzed by qPCR. Gene expression was normalized against a vehicle-treated group.
# Data represent the mean±SD. Statistical analysis was performed with the Student's t test. *p<0.05, **p<0.01.
# FIG. 1F is a bar chart illustrating that orally delivered Fexaramine is intestinally-restricted. Mice received vehicle or Fexaramine (100 mg/kg) via per os (PO) or intraperitoneal (IP) injection for 5 days. Expression of the FXR target gene SHP after PO or IP injection in selected tissues is shown.
# Upon exploration of the in vivo effects of fexaramine (Fex) administration, it was discovered that due to ineffectual absorption, oral (PO) and intraperitoneal (IP) drug delivery produced very different effects (FIGS. 1D and 1E).
# [3] = PO, 100 mg/kg, listed as fexaramine
smiles,measurement,setting,value
"COC(=O)/C=C/c1cccc(N(Cc2ccc(-c3ccc(N(C)C)cc3)cc2)C(=O)C2CCCCC2)c1 [Fex, fexaramine]","abundance of multi-locular, UCP1-expressing adipocytes in inguinal adipose tissue (immunohistochemistry)",[1]; 100 mg/kg PO 5 weeks,substantial increase
same,"expression of TNFα, MCP-1, IL-1α and macrophage marker F4/80 in visceral and brown adipose depots",[1]; 100 mg/kg PO 5 weeks,reduced in visceral and brown adipose depots
same,"expression of ""brown fat-like"" signature genes in inguinal adipose tissue",[1]; 100 mg/kg/day 5 week,increased the expression
same,respiratory capacity (oxygen consumption rate) of stromal vascular fraction from inguinal adipose tissue,[1]; 100 mg/kg/day 5 week,increased respiratory capacity
same,S6K phosphorylation (mTORC1 pathway) in gonadal WAT,[1]; Western blot,reduced S6K phosphorylation
same,levels of IKK-ε and TANK-binding kinase 1 (TBK1) in gWAT,[1]; Western blot,reduced levels
same,HSL phosphorylation in adipose depots,[1]; chronic Fex treatment,pronounced increase
same,serum catecholamine levels,[1]; chronic Fex treatment,increased serum catecholamine levels
same,serum levels of free fatty acids,[1]; chronic Fex treatment,pronounced increase
same,β3-adrenergic receptor expression in gonadal adipose tissue,[1]; chronic Fex treatment,increased
same,cross-sectional area of adipocytes in visceral depots (gonadal and mesenteric),[1]; chronic Fex-treatment,markedly reduced
same,TGR5 activation (luciferase activity),human TGR5,does not activate
same,TGR5 activation (luciferase activity),human TGR5; listed as fexaramine,fails to activate TGR5
same,induction of FXR target gene SHP in intestine,"[2]; IP, 100 mg/kg for five days",robust induction
same,"FXR target gene expression in liver, kidney and intestines","[2]; IP, 100 mg/kg, five days","increases FXR target gene expression in the liver and kidney, in addition to the intestines"
same,induction of SHP in liver and kidney,"[2]; PO versus IP, 100 mg/kg for five days",only seen in liver and kidney after IP treatment
same,"FXR target gene expression (IBABP, OSTα, FGF15) in intestine","[2]; PO, 100 mg/kg",induced multiple FXR target genes in the intestine
same,FXR target gene expression in liver or kidney,"[2]; PO, 100 mg/kg",failed to affect the expression of these genes in liver or kidney
same,induction of FXR target gene SHP in intestine,"[2]; PO, 100 mg/kg for five days",robust induction
same,"FXR target gene expression (IBABP, OSTα, FGF15) in intestine",[2]; [3],substantially enhances FXR target gene expression in the intestine
same,FXR target gene expression in liver or kidney,[2]; [3],not in the liver or kidney
